Reference: PubChem BioAssay AID1963979 (Molecular Pharmacology Branch, DTP, NCI, 2024)
“And” between values parts separate entries of the source, which are not always exact repeats. Equal values may be shown once.

System: 361931-004-R-J1-PDC multicell spheroid viability
Assay: Anticancer human tumor 361931-004-R-J1-PDC patient-derived colon adenocarcinoma cell line growth inhibition [PI3K]
Details: for viability, T/C: stronger effect = lower value
Method in brief: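 Three cell types, namely tumor cells, endothelial cells and mesenchymal stem cells, formed each spheroid. Combinations with four PI3K inhibitors were screened at clinically achievable concentrations decreasing by half-log, and spheroid viability was recorded.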

[1] = curve of first compound, second compound 0.00316 µM
[2] = curve of first compound, second compound 0.01 µM
[3] = curve of first compound, second compound 0.0316 µM
[4] = curve of first compound, second compound 0.1 µM
[5] = curve of first compound, second compound 0.316 µM
[6] = curve of first compound, second compound 1 µM
[7] = second compound 0.00316 µM, first compound 0.0316 µM
[8] = second compound 0.00316 µM, first compound 0.1 µM
[9] = second compound 0.00316 µM, first compound 0.316 µM
[10] = second compound 0.00316 µM, first compound 1 µM
[11] = second compound 0.00316 µM, first compound 3.16 µM
[12] = second compound 0.00316 µM, first compound 10 µM
[13] = second compound 0.01 µM, first compound 0.0316 µM
[14] = second compound 0.01 µM, first compound 0.1 µM
[15] = second compound 0.01 µM, first compound 0.316 µM
[16] = second compound 0.01 µM, first compound 1 µM
[17] = second compound 0.01 µM, first compound 3.16 µM
[18] = second compound 0.01 µM, first compound 10 µM
[19] = second compound 0.0316 µM, first compound 0.0316 µM
[20] = second compound 0.0316 µM, first compound 0.1 µM
[21] = second compound 0.0316 µM, first compound 0.316 µM
[22] = second compound 0.0316 µM, first compound 1 µM
[23] = second compound 0.0316 µM, first compound 3.16 µM
[24] = second compound 0.0316 µM, first compound 10 µM
[25] = second compound 0.1 µM, first compound 0.0316 µM
[26] = second compound 0.1 µM, first compound 0.1 µM
[27] = second compound 0.1 µM, first compound 0.316 µM
[28] = second compound 0.1 µM, first compound 1 µM
[29] = second compound 0.1 µM, first compound 3.16 µM
[30] = second compound 0.1 µM, first compound 10 µM
[31] = second compound 0.316 µM, first compound 0.0316 µM
[32] = second compound 0.316 µM, first compound 0.1 µM
[33] = second compound 0.316 µM, first compound 0.316 µM
[34] = second compound 0.316 µM, first compound 1 µM
[35] = second compound 0.316 µM, first compound 3.16 µM
[36] = second compound 0.316 µM, first compound 10 µM
[37] = second compound 1 µM, first compound 0.0316 µM
[38] = second compound 1 µM, first compound 0.1 µM
[39] = second compound 1 µM, first compound 0.316 µM
[40] = second compound 1 µM, first compound 1 µM
[41] = second compound 1 µM, first compound 3.16 µM
[42] = second compound 1 µM, first compound 10 µM
[43] = curve of first compound, second compound 3.16 µM
[44] = curve of first compound, second compound 10 µM
[45] = second compound 3.16 µM, first compound 0.0316 µM
[46] = second compound 3.16 µM, first compound 0.1 µM
[47] = second compound 3.16 µM, first compound 0.316 µM
[48] = second compound 3.16 µM, first compound 1 µM
[49] = second compound 3.16 µM, first compound 3.16 µM
[50] = second compound 3.16 µM, first compound 10 µM
[51] = second compound 10 µM, first compound 0.0316 µM
[52] = second compound 10 µM, first compound 0.1 µM
[53] = second compound 10 µM, first compound 0.316 µM
[54] = second compound 10 µM, first compound 1 µM
[55] = second compound 10 µM, first compound 3.16 µM
[56] = second compound 10 µM, first compound 10 µM
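Also: spheroids exposed to agents for seven days before readout.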

C=CC(=O)N1CCN(c2nc(=O)n(-c3c(C)ccnc3C(C)C)c3nc(-c4c(O)cccc4F)c(F)cc23)C(C)C1 (stereo not given) + CC(Nc1ccc2c(c1)OCCn1cc(N3C(=O)OCC3C(F)F)nc1-2)C(N)=O
IC50 [1]: > 10 µM
IC50 [2]: > 10 µM
IC50 [3]: > 10 µM
IC50 [4]: > 10 µM
IC50 [5]: > 10 µM
IC50 [6]: > 10 µM
viability, T/C [7]: 99.7%
viability, T/C [8]: 103%
viability, T/C [9]: 101%
viability, T/C [10]: 92.7%
viability, T/C [11]: 99.8%
viability, T/C [12]: 81.2%
viability, T/C [13]: 107%
viability, T/C [14]: 100%
viability, T/C [15]: 99.5%
viability, T/C [16]: 99.5%
viability, T/C [17]: 106%
viability, T/C [18]: 89.8%
viability, T/C [19]: 104%
viability, T/C [20]: 103%
viability, T/C [21]: 99.2%
viability, T/C [22]: 97.5%
viability, T/C [23]: 97%
viability, T/C [24]: 76.2%
viability, T/C [25]: 97.4%
viability, T/C [26]: 91.6%
viability, T/C [27]: 96.9%
viability, T/C [28]: 101%
viability, T/C [29]: 93.5%
viability, T/C [30]: 72.2%
viability, T/C [31]: 88.7%
viability, T/C [32]: 84.7%
viability, T/C [33]: 81.6%
viability, T/C [34]: 89.4%
viability, T/C [35]: 86%
viability, T/C [36]: 66%
viability, T/C [37]: 75.5%
viability, T/C [38]: 78.2%
viability, T/C [39]: 80%
viability, T/C [40]: 80.1%
viability, T/C [41]: 86.7%
viability, T/C [42]: 59.4%

CC1(C)CCC(CN2CCN(c3ccc(C(=O)NS(=O)(=O)c4ccc(NCC5CCOCC5)c([N+](=O)[O-])c4)c(Oc4cnc5[nH]ccc5c4)c3)CC2)=C(c2ccc(Cl)cc2)C1 + COc1c(OCCCN2CCOCC2)ccc2c3n(c(=NC(=O)c4cnc(N)nc4)nc12)CCN3
IC50 [1]: 5.64 µM
IC50 [2]: 5.57 µM
IC50 [3]: 4.87 µM
IC50 [4]: 3.49 µM
IC50 [5]: 0.555 µM
IC50 [6]: < 0.0316 µM
viability, T/C [7]: 92.3%
viability, T/C [8]: 98.1%
viability, T/C [9]: 108%
viability, T/C [10]: 104%
viability, T/C [11]: 95.4%
viability, T/C [12]: 4.89%
viability, T/C [13]: 106%
viability, T/C [14]: 98.7%
viability, T/C [15]: 104%
viability, T/C [16]: 101%
viability, T/C [17]: 94.6%
viability, T/C [18]: 3.83%
viability, T/C [19]: 96%
viability, T/C [20]: 94.9%
viability, T/C [21]: 96.2%
viability, T/C [22]: 90.4%
viability, T/C [23]: 78.6%
viability, T/C [24]: 3.08%
viability, T/C [25]: 82.5%
viability, T/C [26]: 76.6%
viability, T/C [27]: 76.8%
viability, T/C [28]: 81%
viability, T/C [29]: 54.5%
viability, T/C [30]: 1.89%
viability, T/C [31]: 53%
viability, T/C [32]: 51.6%
viability, T/C [33]: 51.4%
viability, T/C [34]: 48.6%
viability, T/C [35]: 36.4%
viability, T/C [36]: 2.15%
viability, T/C [37]: 25.9%
viability, T/C [38]: 25.6%
viability, T/C [39]: 21.4%
viability, T/C [40]: 25.6%
viability, T/C [41]: 19.8%
viability, T/C [42]: 2.71%

CC(C)NCC(C(=O)N1CCN(c2ncnc3c2C(C)CC3O)CC1)c1ccc(Cl)cc1 (stereo not given) + Cc1nc(NC(=O)N2CCCC2C(N)=O)sc1-c1ccnc(C(C)(C)C(F)(F)F)c1
IC50 [3]: 1.38 µM
IC50 [4]: 1.52 µM
IC50 [5]: 1.09 µM
IC50 [6]: 1.08 µM
IC50 [43]: 1.02 µM
IC50 [44]: 0.631 µM
viability, T/C [19]: 96.2%
viability, T/C [20]: 102%
viability, T/C [21]: 85.4%
viability, T/C [22]: 56.2%
viability, T/C [23]: 34.5%
viability, T/C [24]: 27%
viability, T/C [25]: 97%
viability, T/C [26]: 87.4%
viability, T/C [27]: 94.3%
viability, T/C [28]: 60.2%
viability, T/C [29]: 30.7%
viability, T/C [30]: 17.6%
viability, T/C [31]: 96.8%
viability, T/C [32]: 93.9%
viability, T/C [33]: 68.5%
viability, T/C [34]: 51.5%
viability, T/C [35]: 34.2%
viability, T/C [36]: 18.1%
viability, T/C [37]: 87.9%
viability, T/C [38]: 96.7%
viability, T/C [39]: 76.8%
viability, T/C [40]: 50.6%
viability, T/C [41]: 29.6%
viability, T/C [42]: 16.7%
viability, T/C [45]: 72.3%
viability, T/C [46]: 84%
viability, T/C [47]: 73.9%
viability, T/C [48]: 46.6%
viability, T/C [49]: 29.7%
viability, T/C [50]: 13.4%
viability, T/C [51]: 62.1%
viability, T/C [52]: 56.8%
viability, T/C [53]: 63.4%
viability, T/C [54]: 42.4%
viability, T/C [55]: 21.6%
viability, T/C [56]: 11.9%

CCCS(=O)(=O)Nc1ccc(F)c(C(=O)c2c[nH]c3ncc(-c4ccc(Cl)cc4)cc23)c1F + Cc1nc(NC(=O)N2CCCC2C(N)=O)sc1-c1ccnc(C(C)(C)C(F)(F)F)c1
IC50 [3]: 4.92 µM
IC50 [4]: 5.57 µM
IC50 [5]: 5.01 µM
IC50 [6]: 3.5 µM
IC50 [43]: 2.09 µM
IC50 [44]: 0.624 µM
viability, T/C [19]: 96.2%
viability, T/C [20]: 101%
viability, T/C [21]: 88.6%
viability, T/C [22]: 99.7%
viability, T/C [23]: 78.4%
viability, T/C [24]: 4.57%
viability, T/C [25]: 107%
viability, T/C [26]: 86.1%
viability, T/C [27]: 87.2%
viability, T/C [28]: 91.6%
viability, T/C [29]: 95.5%
viability, T/C [30]: 4.97%
viability, T/C [31]: 94.3%
viability, T/C [32]: 92.1%
viability, T/C [33]: 80.7%
viability, T/C [34]: 86.9%
viability, T/C [35]: 80.5%
viability, T/C [36]: 4.14%
viability, T/C [37]: 89.2%
viability, T/C [38]: 88.8%
viability, T/C [39]: 75.9%
viability, T/C [40]: 73.3%
viability, T/C [41]: 57.3%
viability, T/C [42]: 3.96%
viability, T/C [45]: 77.1%
viability, T/C [46]: 75.2%
viability, T/C [47]: 60.3%
viability, T/C [48]: 59.1%
viability, T/C [49]: 48.7%
viability, T/C [50]: 3.13%
viability, T/C [51]: 70.6%
viability, T/C [52]: 68.6%
viability, T/C [53]: 54.2%
viability, T/C [54]: 43.5%
viability, T/C [55]: 30.7%
viability, T/C [56]: 1.96%

Cn1nccc1Nc1nccc(-c2ccn(C(CO)c3ccc(Cl)c(F)c3)c(=O)c2)n1 (stereo not given)
viability, T/C (compound 0.0316 µM): 106% [middle of 4 runs]
viability, T/C (compound 0.1 µM): 92.5% [middle of 4 runs]
viability, T/C (compound 0.316 µM): 97% [middle of 4 runs]
viability, T/C (compound 1 µM): 95.2% [middle of 4 runs]
viability, T/C (compound 3.16 µM): 78.3% [middle of 4 runs]
viability, T/C (compound 10 µM): 61.8% [middle of 4 runs]
IC50 (curve of compound): > 10 µM and 9.47 µM
